The results in this text go back to ChEMBL document CHEMBL1144207, “Molecular design of potent tyrosinase inhibitors having the bibenzyl skeleton” (Bioorg Med Chem Lett, 2008).

The experiment deals with T1, Tyrosinase (Agaricus bisporus, UniProt O42713).
T1 sequence (O42713 whole entry): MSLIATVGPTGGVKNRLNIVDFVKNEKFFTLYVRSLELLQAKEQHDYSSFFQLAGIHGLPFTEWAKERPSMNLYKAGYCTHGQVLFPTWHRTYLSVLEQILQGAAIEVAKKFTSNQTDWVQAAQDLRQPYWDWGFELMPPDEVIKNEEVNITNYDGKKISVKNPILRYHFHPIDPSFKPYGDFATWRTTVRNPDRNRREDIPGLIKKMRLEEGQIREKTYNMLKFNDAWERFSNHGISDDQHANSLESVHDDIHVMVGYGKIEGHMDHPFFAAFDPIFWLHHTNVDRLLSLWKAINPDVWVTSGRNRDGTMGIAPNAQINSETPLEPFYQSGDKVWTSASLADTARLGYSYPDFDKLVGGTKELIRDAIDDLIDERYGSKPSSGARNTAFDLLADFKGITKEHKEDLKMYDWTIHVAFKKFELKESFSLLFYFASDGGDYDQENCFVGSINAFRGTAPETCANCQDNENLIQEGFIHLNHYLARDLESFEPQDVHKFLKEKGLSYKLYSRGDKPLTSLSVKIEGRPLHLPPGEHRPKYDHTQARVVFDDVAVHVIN
Description: Inhibition of mushroom tyrosinase

As a reminder, the IC50 is the concentration needed to halve the response being measured. Lower therefore signals greater potency in that assay. In turn, `Oc1ccc(CCc2ccc(O[C@@H]3OC[C@@H](O)[C@H](O)[C@H]3O)cc2O)c(O)c1` yielded an IC50 of 430 nM. The value for `Oc1ccc(CCc2ccc(O)cc2O[C@@H]2OC[C@@H](O)[C@H](O)[C@H]2O)c(O)c1` was 1600 nM.
